# “Also recorded” adds a separate entry of the source.
# Key:
# C. elegans [1] = assay: Movement and healthspan analysis (worm activity, morphology, circularity); format: in vivo; details: 0.1 mM
# Text: Worm movement was tracked from the images acquired by the ALM during the lifespan assay. Worm size and movement features were extracted and analyzed using custom software.
# To measure healthspan, active worms were identified using the ALM scanner images from the lifespan assay (see Example 2). The worms' spatial location on the plate and their morphology were quantified throughout their lifespan to assess healthspan.
# Worm Activity serves as a proxy for animal health. Changes in spatial distribution of the worms between time points is used to derive aggregate movement for the population over time. Worm Activity is described by two complementary measurements of aggregate movement, Centroid Distance and Spatial Distribution: • Centroid Distance calculates a geometric center for each individual worm, and then measures the minimum collective distance that a group of worms moved between time points. It achieves measurement of the changes in spatial distribution between time-points. • Spatial Distribution uses changes in worm contours between time points to measure the changes in the spatial distribution of the worms' bodies. The normalized distribution of these distances in the population provides a measure of how much the group of worms altered their positions and posture on the plate between two time-points.
# For both of these Activity metrics, a plot with higher numbers indicates good health, and all measures are normalized to fall between 0 and 1.
# Worm morphology is measured from the worm contours detected in the images. In the process of aging, worms become shorter and stouter over time and their shape is an indicator of their overall health and biological age. The Length is calculated from the central spline fitted to the worm contour and Width is measured from each worm's widest point. The worms' posture also changes with age as they lose the ability to maintain an elongated position. Average Circularity measures how close the shape and posture come to being enclosed by a circle.
# Each of these measures are obtained by averaging data for all active worms detected on a plate, then averaging across different replicate plates of the same condition. All measurements are based on worms that are still alive and moving at the time of quantification. All measures start when worms are placed on the scanner at day 3 of adulthood.
# Average Circularity. The Average Circularity Assay indicates worm heath by describing how closely the shape and posture of the worms is enclosed within a circle. Healthy, active worms maintain an elongated, albeit sinusoidal posture. As unhealthy and aged worms lose muscle function, they increasingly adopt a curled, bunched, or folded state in addition to a stout and wrinkled morphology.
# C. elegans [2] = assay: Lifespan assay (Automated Lifespan Machine); format: in vivo
# Text: N2 (Bristol) wild type strain has been used in this application.
# To prevent chemical modification or metabolism of the test article by the food bacteria, worms were fed on a lawn of UV-killed bacteria (UV-i bacteria). An overnight culture of E. coli strain WP-2 was pelleted, washed, filtered, and irradiated. A suspension of UV-i bacteria was spotted on NGM agar containing Streptomycin to inhibit the growth of contaminating bacteria. The quantity and distribution of food bacteria were calibrated to ensure adequate access to food for the duration of assay while maintaining visibility of the worms.
# The ALM used herein is based on the Caenorhabditis elegans lifespan machine published by Stroustrup et. al (Stroustrup, N. et al. The Caenorhabditis elegans Lifespan Machine. Nat Methods 10, 665-670 (2013)), with proprietary modifications to improve temperature stability and image acquisition. The scanner unit consists of a modified EPSON V850 and images are processed and analyzed using the ALM software (see id.). The machine time-of-death calls are trained and validated using the “storyboarding” feature of the ALM software.
# The lifespan assay was designed and performed according to published and validated methods (Amrit, F. R. G., Ratnappan, R., Keith, S. A. & Ghazi, A. The C. elegans lifespan assay toolkit. Methods 68, 465-475 (2014)), using a modified version of the Automated Lifespan Machine (Stroustrup, N. et al. The Caenorhabditis elegans Lifespan Machine. Nat Methods 10, 665-670 (2013)). Worms were age synchronized by bleaching and eggs were plated directly onto NGM agar seeded with UV-i bacteria (Day 1, hatch). On Day 3, when the worms had reached the late L4 stage, they were transferred to dishes containing 100 μM 5-Fluorodeoxyuridine (FUdR) to suppress progeny. On day 5, the worms were washed off the dishes, and 30-50 worms were plated on each scanner dish. Plates were immobilized inverted on the bed of an Automated Lifespan Machine which scanned two images per hour of the plates continuously for the next 40 days.
# Time of death calls exported from the ALM software was analyzed and plotted using the Lifelines software package developed by Cam Davidson-Pilon et. al (Lifelines Version: v0.25.9). Additional analysis performed using the OASIS2 analysis software (Seong Kyu Han et. al. OASIS 2: online application for survival analysis 2 with features for the analysis of maximal lifespan and healthspan in aging research. Oncotarget. 7:56147-56152. (2016)).
# The lifespan assay was initiated by expanding all replicate groups to more than 1000 worms, then synchronizing by bleaching and allowing larval worms to hatch and arrest. To eliminate the effect of bacterial metabolism and growth on lifespan of C. elegans (wild type, and not over express β-amyloid peptide) worms, synchronized worms were only exposed to dead food bacteria. To suppress progeny, worms were transferred to media containing 5-Fluorodeoxyuridine (FUdR) within 54-60 hours post-plating. Worms were inspected 24 and 48 hours after this transfer to confirm infertility. Finally, the worms were inspected for general health and morphology before transferring to scanner plates. The scanner plates were incubated for an additional 2 days and inspected again before loading onto scanners.
# To obtain high-resolution lifespan data and eliminate confounding factors such as worm handling and operator bias, lifespan data was collected using an Automated Lifespan Machine (ALM) (Stroustrup, N. et al. The Caenorhabditis elegans Lifespan Machine. Nat Methods 10, 665-670 (2013)). Three biological replicates, derived from synchronizing three independently maintained lines of N2 worms, were distributed across instruments. Images of the worms were then collected for the next 35 days with no interruption or manipulations. Some plates were excluded after quality checks, but plate number and worm count for all replicates exceeded the threshold for statistical significance (Table 1, row 1).
smiles,measurement,setting,value
"Oc1ccc(C=Cc2cc(O)cc(O)c2)cc1 [Resveratrol, reference compound]",Average circularity / posture (FIG. 7),C. elegans [1]; late life,maintained a more elongated posture well into late life
same,"Aggregate movement (Centroid Distance and Spatial Distribution, FIGS. 5A-5B)",C. elegans [1]; over the duration of lifespan,more vigorous movement
same,"Worm morphology (size, FIGS. 6A-6C)",C. elegans [1]; over the lifespan,slightly smaller earlier in the assay but remained larger in the late life stages
same,Age in days at 25% mortality,C. elegans [2]; 0.1 mM,21.46 days
same,Age in days at 50% mortality,C. elegans [2]; 0.1 mM,27.29 days
same,Age in days at 75% mortality,C. elegans [2]; 0.1 mM,31.13 days
same,Age in days at 90% mortality,C. elegans [2]; 0.1 mM,35.89 days
same,Age in days at 100% mortality,C. elegans [2]; 0.1 mM,40.85 days
same,Lifespan / survival relative to vehicle control (in words),C. elegans [2]; 0.1 mM positive control,significant positive increase in lifespan; also recorded: higher survival than the vehicle control at all timepoints
same,Maximum lifespan,"C. elegans [2]; 0.1 mM, 95th percentile of lifespans",37.3 days
same,Median lifespan,"C. elegans [2]; 0.1 mM, N2 wild type, day 0 = day 1 of adulthood",27.3 days
same,Mean lifespan,"C. elegans [2]; 0.1 mM, area under survival curve",26.3 days
